Test results reported in ChEMBL document CHEMBL1255421, “In vitro fungicidal activities of echinocandins against Candida metapsilosis, C. orthopsilosis, and C. parapsilosis evaluated by time-kill studies” (2010).
In brackets after ≈: the same amount, converted by molar mass. Activity calls are given as the source filed them. No cut-off for these calls is given here. Numbered stars: 1 amine (or outer) side, 2 acyl side, 3 side chain; on linkers, the order of the positions; unused ones are H or OH. Bridge positions count the residues as written; N and C are the ends. Square brackets hold non-standard residues; d marks the D form. Peptide text beside a SMILES is read from it. * marks the point of attachment. hTyr(3S-OH,4S-OH,3'-OSO3H) = N[C@H](C(=O)O)[C@H](O)[C@@H](O)c1ccc(O)c(OS(=O)(=O)O)c1; Orn(4R-OH,5R-OH) = O=C([C@H](C[C@@H](O)[C@@H](O)N[*:3])N[*:1])[*:2]; Pro(3S-OH,4S-Me) = C[C@H]1CN[C@H](C(=O)O)[C@H]1O; X1 = CCCCCOc1ccc(-c2cc(-c3ccc(C(=O)*)cc3)no2)cc1; Gln(3R-OH) = NC(=O)C[C@@H](O)[C@H](N)C(=O)O; Hyp = O=C(O)[C@@H]1C[C@@H](O)CN1

Columns and labels:
Candida orthopsilosis [1] = experiment: Antifungal activity against Candida orthopsilosis clinical isolate bloodstream form assessed as time required for 99.9% reduction in fungal growth at 0.25 mg/L by time-kill assay; assay type: functional
Candida orthopsilosis [2] = experiment: Antifungal activity against Candida orthopsilosis clinical isolate bloodstream form assessed as time required for 99.9% reduction in fungal growth at 1 mg/L by time-kill assay; assay type: functional
Candida orthopsilosis [3] = experiment: Antifungal activity against Candida orthopsilosis clinical isolate bloodstream form assessed as time required for 99.9% reduction in fungal growth at 4 mg/L by time-kill assay; assay type: functional
Candida orthopsilosis [4] = experiment: Antifungal activity against Candida orthopsilosis clinical isolate bloodstream form assessed as time required for 99.9% reduction in fungal growth at 32 mg/L by time-kill assay; assay type: functional
Candida metapsilosis [5] = experiment: Antifungal activity against Candida metapsilosis clinical isolate bloodstream form assessed as time required for 50% reduction in fungal growth at 16 mg/L by time-kill assay; assay type: functional
Candida metapsilosis [6] = experiment: Antifungal activity against Candida metapsilosis clinical isolate bloodstream form assessed as time required for 90% reduction in fungal growth at 0.25 mg/L by time-kill assay; assay type: functional
Candida metapsilosis [7] = experiment: Antifungal activity against Candida metapsilosis clinical isolate bloodstream form assessed as time required for 90% reduction in fungal growth at 1 mg/L by time-kill assay; assay type: functional
Candida metapsilosis [8] = experiment: Antifungal activity against Candida metapsilosis clinical isolate bloodstream form assessed as time required for 90% reduction in fungal growth at 4 mg/L by time-kill assay; assay type: functional
Candida metapsilosis [9] = experiment: Antifungal activity against Candida metapsilosis clinical isolate bloodstream form assessed as time required for 90% reduction in fungal growth at 32 mg/L by time-kill assay; assay type: functional
Candida metapsilosis [10] = experiment: Antifungal activity against Candida metapsilosis clinical isolate bloodstream form assessed as time required for 99% reduction in fungal growth at 16 mg/L by time-kill assay; assay type: functional
Candida metapsilosis [11] = experiment: Antifungal activity against Candida metapsilosis clinical isolate bloodstream form assessed as time required for 99% reduction in fungal growth at 32 mg/L by time-kill assay; assay type: functional
Candida parapsilosis [12] = experiment: Antifungal activity against Candida parapsilosis clinical isolate bloodstream form assessed as time required for 50% reduction in fungal growth at 16 mg/L by time-kill assay; assay type: functional
Candida parapsilosis [13] = experiment: Antifungal activity against Candida parapsilosis clinical isolate bloodstream form assessed as time required for 90% reduction in fungal growth at 1 mg/L by time-kill assay; assay type: functional
Candida parapsilosis [14] = experiment: Antifungal activity against Candida parapsilosis clinical isolate bloodstream form assessed as time required for 90% reduction in fungal growth at 16 mg/L by time-kill assay; assay type: functional
Candida parapsilosis [15] = experiment: Antifungal activity against Candida parapsilosis clinical isolate bloodstream form assessed as time required for 90% reduction in fungal growth at 32 mg/L by time-kill assay; assay type: functional
Candida parapsilosis [16] = experiment: Antifungal activity against Candida parapsilosis clinical isolate bloodstream form assessed as time required for 99% reduction in fungal growth at 16 mg/L by time-kill assay; assay type: functional
Candida parapsilosis [17] = experiment: Antifungal activity against Candida parapsilosis clinical isolate bloodstream form assessed as time required for 99% reduction in fungal growth at 32 mg/L by time-kill assay; assay type: functional
Candida parapsilosis [18] = experiment: Antifungal activity against Candida parapsilosis clinical isolate bloodstream form assessed as time required for 99.9% reduction in fungal growth at 0.25 mg/L by time-kill assay; assay type: functional
Candida parapsilosis [19] = experiment: Antifungal activity against Candida parapsilosis clinical isolate bloodstream form assessed as time required for 99.9% reduction in fungal growth at 1 mg/L by time-kill assay; assay type: functional
Candida parapsilosis [20] = experiment: Antifungal activity against Candida parapsilosis clinical isolate bloodstream form assessed as time required for 99.9% reduction in fungal growth at 16 mg/L by time-kill assay; assay type: functional
Candida parapsilosis [21] = experiment: Antifungal activity against Candida parapsilosis clinical isolate bloodstream form assessed as time required for 99.9% reduction in fungal growth at 32 mg/L by time-kill assay; assay type: functional
Candida metapsilosis [22] = experiment: Antifungal activity against Candida metapsilosis clinical isolate bloodstream form assessed as time required for 99.9% reduction in fungal growth at 1 mg/L by time-kill assay; assay type: functional
Candida orthopsilosis [23] = experiment: Fungicidal activity against Candida orthopsilosis isolate CP-150 bloodstream form by CLSI method; assay type: functional; details: Lodderomyces orthopsilosis
Candida metapsilosis [24] = experiment: Fungicidal activity against Candida metapsilosis isolate CP-132 bloodstream form by CLSI method; assay type: functional; details: Lodderomyces metapsilosis
Candida parapsilosis [25] = experiment: Fungicidal activity against Candida parapsilosis isolate CP-300 bloodstream form by CLSI method; assay type: functional; details: Lodderomyces parapsilosis
Candida parapsilosis [26] = experiment: Fungicidal activity against Candida parapsilosis isolate CP-301 bloodstream form by CLSI method; assay type: functional; details: Lodderomyces parapsilosis
Candida parapsilosis [27] = experiment: Antifungal activity against Candida parapsilosis clinical isolate bloodstream form assessed as fungal count at 4 mg/L measured at 6 hrs by time-kill assay; assay type: functional
Candida parapsilosis [28] = experiment: Antifungal activity against Candida parapsilosis clinical isolate bloodstream form assessed as induction of miniparadoxical effect at 16 mg/L after 48 hrs by time-kill assay; assay type: functional, organism-based
Candida orthopsilosis [29] = experiment: Antifungal activity against Candida orthopsilosis clinical isolate bloodstream form assessed as induction of fungal killing rate at 0.03 to 32 mg/L measured at 6 hrs by time-kill assay; assay type: functional, organism-based
Candida metapsilosis [30] = experiment: Antifungal activity against Candida metapsilosis clinical isolate bloodstream form assessed as induction of fungal killing rate at 0.03 to 32 mg/L measured at 6 hrs by time-kill assay; assay type: functional, organism-based
Candida metapsilosis [31] = experiment: Antifungal activity against Candida metapsilosis clinical isolate bloodstream form assessed as mild induction of fungal death at 0.03 to 32 mg/L after 6 hrs by time-kill assay; assay type: functional, organism-based
Candida orthopsilosis [32] = experiment: Antifungal activity against Candida orthopsilosis clinical isolate bloodstream form assessed as induction of maximal fungal death at 16 mg/L after 48 hrs by time-kill assay; assay type: functional, organism-based
Candida metapsilosis [33] = experiment: Antifungal activity against Candida metapsilosis clinical isolate bloodstream form assessed as induction of maximal fungal death at 16 mg/L after 48 hrs by time-kill assay; assay type: functional, organism-based
Candida orthopsilosis [34] = experiment: Antifungal activity against Candida orthopsilosis clinical isolate bloodstream form assessed as minimum concentration required for => 3-log decrease in fungal growth after 12 to 48 hrs by time-kill assay; assay type: functional
Candida orthopsilosis [35] = experiment: Antifungal activity against Candida orthopsilosis clinical isolate bloodstream form assessed as time required for 50% reduction in fungal growth at 16 mg/L by time-kill assay; assay type: functional
Candida orthopsilosis [36] = experiment: Antifungal activity against Candida orthopsilosis clinical isolate bloodstream form assessed as time required for 50% reduction in fungal growth at 32 mg/L by time-kill assay; assay type: functional
Candida orthopsilosis [37] = experiment: Antifungal activity against Candida orthopsilosis clinical isolate bloodstream form assessed as time required for 90% reduction in fungal growth at 0.25 mg/L by time-kill assay; assay type: functional
Candida orthopsilosis [38] = experiment: Antifungal activity against Candida orthopsilosis clinical isolate bloodstream form assessed as time required for 99% reduction in fungal growth at 0.25 mg/L by time-kill assay; assay type: functional
Candida orthopsilosis [39] = experiment: Antifungal activity against Candida orthopsilosis clinical isolate bloodstream form assessed as time required for 99% reduction in fungal growth at 1 mg/L by time-kill assay; assay type: functional

SMILES	Time (Candida orthopsilosis [1]) [h]	Time (Candida orthopsilosis [2]) [h]	Time (Candida orthopsilosis [3]) [h]	Time (Candida orthopsilosis [4]) [h]	Time (Candida metapsilosis [5]) [h]	Time (Candida metapsilosis [6]) [h]	Time (Candida metapsilosis [7]) [h]	Time (Candida metapsilosis [8]) [h]	Time (Candida metapsilosis [9]) [h]	Time (Candida metapsilosis [10]) [h]	Time (Candida metapsilosis [11]) [h]	Time (Candida parapsilosis [12]) [h]	Time (Candida parapsilosis [13])	Time (Candida parapsilosis [14]) [h]	Time (Candida parapsilosis [15]) [h]	Time (Candida parapsilosis [16]) [h]	Time (Candida parapsilosis [17]) [h]	Time (Candida parapsilosis [18])	Time (Candida parapsilosis [19])	Time (Candida parapsilosis [20]) [h]	other results
CC[C@H](C)C[C@H](C)CCCCCCCCC(=O)N[C@H]1C[C@@H](O)[C@@H](NCCN)NC(=O)[C@@H]2[C@@H](O)CCN2C(=O)[C@H]([C@H](O)CCN)NC(=O)[C@H]([C@H](O)[C@@H](O)c2ccc(O)cc2)NC(=O)[C@@H]2C[C@@H](O)CN2C(=O)[C@H]([C@@H](C)O)NC1=O [CASPOFUNGIN]	>48	>48	34.05	>48	2.59	>48	>48	25.58	6.6	17.21	13.2	2.59	>48 h	8.61	6.6	>48	>48	>48 h	>48 h	>48	Time (Candida parapsilosis [21]): >48 h; Time (Candida metapsilosis [22]): >48 h; MIC (Candida orthopsilosis [23]): 0.5 µg/mL (≈ 0.457 µM); MIC (Candida metapsilosis [24]): 0.25 µg/mL (≈ 0.229 µM); MIC (Candida parapsilosis [25]): 2 µg/mL (≈ 1.83 µM); MIC (Candida parapsilosis [26]): 2 µg/mL (≈ 1.83 µM); log10cfu (Candida parapsilosis [27]): 1.43 /ml; Activity (Candida parapsilosis [28]): Active; Activity (Candida orthopsilosis [29]): inactive; Activity (Candida metapsilosis [30]): inactive; Activity (Candida metapsilosis [31]): Active; Activity (Candida orthopsilosis [32]): Active; Activity (Candida metapsilosis [33]): Active; MED (Candida orthopsilosis [34]): 14 mg/L; Time (Candida orthopsilosis [35]): 3.86 h; Time (Candida orthopsilosis [36]): 10.53 h; Time (Candida orthopsilosis [37]): >48 h; Time (Candida orthopsilosis [38]): >48 h; Time (Candida orthopsilosis [39]): >48 h
CCCCCOc1ccc(-c2cc(-c3ccc(C(=O)N[C@H]4C[C@@H](O)[C@@H](O)NC(=O)[C@@H]5[C@@H](O)[C@@H](C)CN5C(=O)[C@H]([C@H](O)CC(N)=O)NC(=O)[C@H]([C@H](O)[C@@H](O)c5ccc(O)c(OS(=O)(=O)O)c5)NC(=O)[C@@H]5C[C@@H](O)CN5C(=O)[C@H]([C@@H](C)O)NC4=O)cc3)no2)cc1 [MICAFUNGIN] (X1-[Orn(4R-OH,5R-OH)]T[Hyp][hTyr(3S-OH,4S-OH,3'-OSO3H)][Gln(3R-OH)][Pro(3S-OH,4S-Me)]; lactam 1-C)	>48	30.4	16.59	15.34	1.45	>48	10.15	5.89	4.76	9.61	9.53	9.5	inactive	31.55	20.45	>48	>48	inactive	inactive	>48	Time (Candida parapsilosis [21]): >48 h; Time (Candida metapsilosis [22]): 30.46 h; MIC (Candida orthopsilosis [23]): 0.25 µg/mL (≈ 0.197 µM); MIC (Candida metapsilosis [24]): 0.5 µg/mL (≈ 0.394 µM); MIC (Candida parapsilosis [25]): 0.25 µg/mL (≈ 0.197 µM); MIC (Candida parapsilosis [26]): 1 µg/mL (≈ 0.787 µM); Activity (Candida orthopsilosis [29]): inactive; Activity (Candida metapsilosis [30]): inactive; Activity (Candida metapsilosis [31]): Active; Activity (Candida orthopsilosis [32]): Active; Time (Candida orthopsilosis [35]): 1.38 h; Time (Candida orthopsilosis [36]): 1.54 h; Time (Candida orthopsilosis [37]): >48 h; Time (Candida orthopsilosis [38]): >48 h; Time (Candida orthopsilosis [39]): 20.26 h
